According to a melting point compilation (Tetko et al.; mined from patent text by program, amines drawn as free bases though some values may be those of a salt):

Row | melting point | SMILES
1 | 205 to 208 °C | CC(C)N(CCN1C(=O)/C(=N/NC(N)=O)c2ccc(Cl)cc21)C(C)C
2 | 146 to 149 °C | Cc1cccc(C)c1NNC(=O)c1cccc2c1CC(N(C(=O)C(F)(F)F)C1CC1)CO2 (configuration not stated)
3 | 106 to 108 °C | CCOC(=O)Cc1c(C)nc(-c2ccccc2)nc1-c1cccc([N+](=O)[O-])c1
4 | 96 to 97.7 °C | CC(C)(C)C1CC=C(c2cc(C(F)(F)F)cc3[nH]c(N4CCN(c5ncccc5C(F)(F)F)CC4)nc23)CC1 (configuration not stated)
5 | 150 to 152 °C | CCOC(=O)Cc1ccc(C(=O)c2ccccc2)cc1N
6 | 113 to 114 °C | COC1(C)CN(c2ccc(N3C[C@H](CNC(C)=O)OC3=O)cc2F)C1
7 | 80 to 82 °C | COC(C(=O)O)c1ccsc1 (configuration not stated)
8 | 123 to 125 °C | CC1=CC(OC(=O)c2ccc(O)cc2)C(O)C(C)(C)CC1=O (configuration not stated)
9 | 110 to 113 °C | Cc1ccc(CC2CCCN(c3nc(C)c(C(=O)NCc4ccccc4)s3)C2=O)cc1 (configuration not stated)
10 | 156 °C | CC1(C)COc2cc(Cl)cc(Cl)c2C(O)(c2ccccn2)C1 (configuration not stated)
11 | 134 to 135 °C | CS(=O)(=O)c1ccc(Oc2cccc(C(=O)Nc3ccc(F)cc3)n2)cc1
12 | 182 to 183 °C | CCOCn1c(N(C(C)=O)c2cc(C)cc(C)c2)c(CC)c(=O)[nH]c1=O
13 | 50 to 53 °C | CCN1C(OC)=NC(C)=NS1(=O)=O
14 | 195 to 200 °C | O=C(O)C(=O)c1oc2cccc(OCc3ccc(F)cc3)c2c1O
15 | 144 to 145 °C | FC(F)(F)C(Cl)=NC(c1ccccc1)(c1ccccc1)c1ccccc1
16 | 206 to 207 °C | C=CCOC(=O)Nc1ccc(C2=NNC(=O)CC2C)cc1 (configuration not stated)
17 | 144 to 145 °C | CC(C)(C)OC(=O)C(N)Cn1c(=O)c(-c2cccs2)nc2ccccc21 (configuration not stated)
18 | 188 °C | N=C(NO)c1ccnc(N)c1
19 | 124 to 126 °C | Cc1ccccc1C(O)c1nnn[nH]1 (racemic)
20 | 180 to 182 °C | COc1nccc2oc(S(N)(=O)=O)cc12
21 | 135 to 136 °C | COC(=O)C1C(NC(C)=O)CC(=O)OC1C (configuration not stated)
22 | 184 to 187 °C | COCS(=O)(=O)c1ccc(C(CC2CCCC2)C(=O)O)cc1 (configuration not stated)
23 | 135 °C | CC(C)(C)c1cccc(S(=O)(=O)Nc2ncc(C(F)(F)F)cc2I)c1
24 | 168 to 171 °C | Cc1nc(N2CCCC2)sc1C(=O)c1ccc(Cl)c([N+](=O)[O-])c1
25 | 98 to 100 °C | CCc1nc(-c2cccc(C)c2)c(-c2ccnc(NC(=O)C3CCCCC3)c2)s1

Row | melting point | SMILES
26 | 200 to 203 °C | CCC(C#N)=C1CCN(c2ccc(N3C[C@H](CNC(=O)CBr)OC3=O)cc2F)CC1
27 | 74 to 75 °C | COc1cc(OC(C)C)cc2c1-c1c(OC(C)C)cccc1C2=O
28 | 90 to 92 °C | C=CCNc1nc(NCC=C)nc(N2CCN(C(=O)NCC(c3ccccc3)c3ccccc3)CC2)n1
29 | 276 to 277 °C | CC1(C)CCc2c(N3CCCC3)nc3sc4c(NCc5cncc6ccccc56)ncnc4c3c2C1
30 | 176 to 178 °C | CCCc1c2nc(C(=O)OC)cc(Cl)c2cc2c(=O)cc(C(=O)OCC)oc12
31 | 153 to 155 °C | CCCCNS(=O)(=O)CC(O)C(O)C(CC1CCCCC1)NC(=O)c1ccccc1 (configuration not stated)
32 | 188 to 189 °C | CC(CNC(=O)c1c2ccccc2nc2c1[nH]c1ccccc12)N(C)C (configuration not stated)
33 | 197 to 199 °C | CCc1nn(-c2ccc(F)cc2)c2cc(C(=O)Nc3c(Cl)cncc3Cl)ccc12
34 | 123 to 125 °C | CC1C(=O)N(c2ccc(Cc3ccccc3)cc2)C(=S)N1c1ccccc1 (configuration not stated)
35 | 193 to 198 °C | CC(C)C(=O)OCC(COC(=O)C(C)C)OCn1cnc2c(=O)[nH]c(N)nc21
36 | 253 to 254 °C | Cc1cc(=O)oc2cc(NC(=O)CO)ccc12
37 | 217 to 219 °C | CNC(=O)C(Cc1ccc(OCCc2nc(-c3ccccc3)oc2C)cc1)C(=O)NC
38 | 130 to 132 °C | CC1(C)Oc2ccsc2C(N2CCCC2=O)C1OC(=O)c1ccccc1 (configuration not stated)
39 | 55 to 57 °C | CCCOC(=Nc1sc(Cl)cc1C#N)OCCC
40 | 251 to 253 °C | Fc1cnc(Nc2cccnc2)nc1Nc1ccc2c(c1)OCCO2
41 | 156 to 158 °C | NC(=O)CN1Cc2ccccc2CCC1=O
42 | 170 °C | NS(=O)(=O)Oc1ccc2c(c1)S(=O)(=O)N=C2C1CCCCC1
43 | 214 to 217 °C | CCCCc1nc(C(C)O)c(C(=O)O)n1Cc1ccc(-c2ccccc2-c2nnn[nH]2)cc1 (configuration not stated)
44 | 100 to 101 °C | COC(=O)c1nc(-c2ccccc2)ccc1O
45 | 115 to 116 °C | CCCCC1=C(c2ccc(F)cc2)C(=NO)CC1
46 | 97 to 99 °C | COc1cc(OC)c(C(=O)N(C)OC)cc1Cl
47 | 207 °C | Cc1ccc2c(c1)c(N1CCN(C(=O)c3cccs3)CC1)c(C#N)c(=O)n2CCN1CCOCC1
48 | 48 to 50 °C | COc1ccc2c(c1)C(CC#N)=CCC2
49 | 83 °C | CCCCCCCCC#CCC#CCC#CCS(=O)(=O)CC(=O)NCC
50 | 120 to 130 °C | CN1CCC(C2(O)c3ccccc3Sc3cc(F)ccc32)CC1 (configuration not stated)

Row | melting point | SMILES
51 | 134 to 135 °C | CC(C)(C)OC(=O)CN1C(=O)[C@@H](N[C@@H](CCCCNC(=O)OC(C)(C)C)C(=O)O)CSc2ccccc21
52 | 103 to 108 °C | CCCCCCCC/C=C\CCCCCCCC(O)CCCNC(=O)CCNC(C)=O (configuration not stated)
53 | 72.5 to 73.6 °C | COc1ccc(-c2nnn(-c3c(Cl)cc(Cl)cc3I)c2N)cc1
54 | 179 to 190 °C | O=C1c2ccccc2-c2ccc(Cl)c3cccc1c23
55 | 137 °C | Clc1cnc2cc(Cl)c(Cl)cc2n1
56 | 236 to 238 °C | CN1C(=O)C2=C(c3ccccc3)N(C)C(=O)C2=C1c1ccccc1
57 | 119 to 121 °C | CC(=O)N1CCS(=O)c2cccc(Cl)c2C1 (configuration not stated)
58 | 174 °C | Cc1cccc(N2CCN(c3ccc(S)nn3)CC2)c1
59 | 265 to 266 °C | N[C@@H](CCC1CCCCC1)C(=O)O
60 | 122 to 123 °C | OCc1cn(Cc2ccc(OCc3ccccc3)cc2)cc1-c1ccccc1
61 | 160 °C | CS(=O)(=O)c1ccc(C(O)c2cccc3ccccc23)cc1 (configuration not stated)
62 | 61 to 68 °C | CCCCCCCCCCCCCCCCCCOc1c(OCC(CC)CCCC)ccc2c1C(=O)c1ccccc1C2=O (configuration not stated)
63 | 98 to 100 °C | CC[C@H](C)[C@H](NC(=O)O[C@@H](CC(C)C)C(=O)OCc1ccccc1)C(=O)NC1CCCCC1
64 | 154 to 155 °C | CN1CCCCC1=NC(=O)Nc1ccc(C(F)(F)F)cc1
65 | 144 °C | CS(=O)(=O)N(c1cc(F)c(F)cc1C#N)S(C)(=O)=O
66 | 246 to 248 °C | COC(=O)c1ccc(O)cc1NC(=O)c1cccc2ccccc12
67 | 92 to 105 °C | Cc1ccnc2c1nc(COc1ccc(CC3SC(=O)N(C(c4ccccc4)(c4ccccc4)c4ccccc4)C3=O)cc1)n2C (configuration not stated)
68 | 100 °C | COc1ccc([N+](=O)[O-])cc1CC#N
69 | 178 to 179 °C | COC(=O)C(Cc1ccc(Cl)cc1)NC(=O)C1CCC(CNC(=O)OC(C)(C)C)CC1 (configuration not stated)
70 | 104 to 105 °C | COC(=O)C(F)=CCS(=O)(=O)c1ccccc1
71 | 42 to 43 °C | CC1(CO)CCC2(CC1)OCCO2
72 | 198 to 200 °C | O=C(/C=C/C1CCCCC1)N1CCN(C(=O)c2cc(C(F)(F)F)cc(C(F)(F)F)c2)[C@H](Cc2c[nH]c3ccccc23)C1
73 | 126 to 127 °C | COc1cc(CCCC2SC(=O)NC2=O)ccc1OCc1coc(CCc2ccccc2)n1 (configuration not stated)
74 | 161 to 162 °C | Cc1cc(C)c2c(-c3cccc(Cl)c3)cc(=O)n(C)c2n1
75 | 295 °C | CN(C)c1ncc(-c2cccnc2)cn1

Row | melting point | SMILES
76 | 112 to 114 °C | CCOc1cc(C(C)=O)ccc1OCCCN1CCC(c2noc3cc(F)ccc23)CC1
77 | 139 °C | CCC(=O)C1=C(O)CC(c2cc3c(cc2[N+](=O)[O-])OCO3)CC1=O (configuration not stated)
78 | 150 to 151 °C | CC(C)(C)c1nc(C=Cc2cccnc2)nc(C(C)(C)C)c1O
79 | 147 to 150 °C | CCn1cc(C(=O)NCc2ccc(Cl)cc2)c(=O)c2cc(C#CCOC(=O)c3cccc(CN4CCOCC4)c3)sc21
80 | > 270 °C | CC(=O)Nc1ccc(Nc2nnc(Cc3ccncc3)c3ccccc23)cc1
81 | 102 to 103 °C | CC12CCC3C4CCC(=O)C=C4CCC3C1CCC2C(F)F (configuration not stated)
82 | 60 to 62 °C | CC(C)c1nc(CN(C)C(=O)NC(C(=O)NC(Cc2ccccc2)CC(O)C(Cc2ccccc2)NC(=O)OCc2ccno2)C(C)C)cs1 (configuration not stated)
83 | 35 to 37 °C | CCCCCCOC1CCC(=O)N1 (configuration not stated)
84 | 147 to 149 °C | CCOC(=O)C1CCc2cc(Cc3cnc(N)s3)ccc2C1 (configuration not stated)
85 | 127 to 128 °C | Oc1cc2ccccn2n1
86 | 244 °C | CS(=O)(=O)n1c(Cc2ccc(C(=O)O)cc2)cc2cc(Cl)ccc21
87 | 200 to 204 °C | CC(C)N1CCN(C(=O)OC2CCN(c3ccc(C(N)=O)cn3)CC2)CC1
88 | 65 to 67 °C | CCCCCCCCCCCCCCCO/N=C(\CCCCCCCCCCCCCCC)CC(=O)O
89 | 104 to 106 °C | O=C1CNC(c2cccc(Cc3ccccc3)c2)=NN1CC(F)(F)F
90 | 111 °C | COc1cc(CCCN(C)Cc2ccc(OC)c(OC)c2)ccc1NC(=O)c1cccc2c(=O)c3cccc(C)c3[nH]c12
91 | 165 to 166 °C | COc1cc(C(=O)c2csc(Nc3ccc(Cl)cc3)n2)cc(OC)c1OC
92 | 79 to 81 °C | CCc1ccc(C2CCCCC2)nc1
93 | 163 to 167 °C | CN1C(=O)C2C3C=CC(C3)C2(c2ccc([N+](=O)[O-])cc2)C1=O (configuration not stated)
94 | 69.5 to 71.5 °C | COC(=O)CCCCCOc1ccc(NC(=O)OCCO)cc1
95 | 56 to 58 °C | CCCCCCCCOC(=O)CS(=O)(=O)Nc1c(C(C)C)cccc1C(C)C
96 | 232 °C | CCOC(=O)C1=C(C)NC2=C(C(=O)OC2)C1c1cccs1 (configuration not stated)
97 | 116 to 118 °C | CC(=O)c1nc2cccc(Oc3ccccc3)c2cc1OCc1ccccc1

Row | SMILES | melting point
98 | CC(C)NC(=O)Nc1ccc2c(c1)C(c1ccccc1F)=NCC(=O)N2C | 185 to 188 °C
99 | CCCN(CCC)C1Cc2cccc3c2N(CCC3)C1 (configuration not stated) | 112 to 116 °C
100 | C=CC1CC2=CCCCC2C2CCC3(C)C(O)CCC3C12 (configuration not stated) | 117 to 121 °C
101 | FC(F)(F)C1(c2cc(Cl)cc(Cl)c2)CC(c2ccc(-n3cccc3)cc2)=NO1 (configuration not stated) | 206 to 208 °C
102 | CN(C)c1c(S(=O)(=O)C(F)(F)F)c(C#N)nn1-c1c(Cl)cc(C(F)(F)F)cc1Cl | 178 to 179 °C
